From article PMC13107563 (Protein & Cell, 2025)
No end group written: not given here.

Key:
NPFFR1 / NPFFR2 = conditions: NPFFR1 vs NPFFR2; ref Quillet et al., 2016; cited from earlier work
Excerpt: NPFFR1 primarily couples to inhibitory Gi/o proteins and regulates di ...

NPFFR2 (WT) = biological target: T1, NPFFR2 (WT) (Homo sapiens, UniProt Q9Y5X5); experiment: GloSensor cAMP accumulation assay, WT NPFFR2 (Gi signaling); type: cell-based; conditions: WT NPFFR2 (reference, 100 %WT), three independent experiments in triplicates
T1 construct: expressed in transfected cells; host or cells: HEK293T (described for NPFFR1 only)

NPFFR2 T220A = biological target: T2, NPFFR2 T220A (Homo sapiens, UniProt Q9Y5X5, T322A); experiment: GloSensor cAMP accumulation assay, NPFFR2 T220A; type: cell-based; conditions: Gi signaling, three independent experiments in triplicates
T2 construct: expressed in transfected cells; host or cells: HEK293T (described for NPFFR1 only)
T2 sequence (Q9Y5X5 103-522 T322A): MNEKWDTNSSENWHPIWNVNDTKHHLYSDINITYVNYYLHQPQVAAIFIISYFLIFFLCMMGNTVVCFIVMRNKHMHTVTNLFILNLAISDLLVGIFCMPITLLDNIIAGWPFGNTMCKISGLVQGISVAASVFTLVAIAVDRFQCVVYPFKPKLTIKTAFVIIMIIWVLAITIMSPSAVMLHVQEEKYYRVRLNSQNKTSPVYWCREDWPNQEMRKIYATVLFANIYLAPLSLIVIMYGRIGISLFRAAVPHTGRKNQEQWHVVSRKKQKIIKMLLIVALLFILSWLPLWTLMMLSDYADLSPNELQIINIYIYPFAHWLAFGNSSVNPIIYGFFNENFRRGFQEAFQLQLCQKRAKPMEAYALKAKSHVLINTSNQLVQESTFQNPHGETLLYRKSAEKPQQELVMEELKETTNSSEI

T1 sequence (Q9Y5X5 103-522): as the sequence (Q9Y5X5 103-522 T322A) above, with A220T counted along it

| Compound | receptor preference (NPFFR1 / NPFFR2) | Emax (NPFFR2 (WT)) [%] | EC50 (NPFFR2 T220A) [µM] |
| --- | --- | --- | --- |
| Neuropeptide AF (AGEGLNSQFWSLAAPQRF; ends and bridges not checked; UniProt O15130 93-110, looked up) [NPAF, peptide derived from pro-NPFFA] | prefer binding to NPFFR2 | – | – |
| CC(C)C[C@H](NC(=O)[C@H](CC(N)=O)NC(=O)[C@@H]1CCCN1C(=O)[C@@H](N)C(C)C)C(=O)N1CCC[C@H]1C(=O)N[C@@H](CCC(N)=O)C(=O)N[C@@H](CCCNC(=N)N)C(=O)N[C@@H](Cc1ccccc1)C(N)=O [RFRP-3, RF-amide related peptide-3] | – | 100 | > 30.2 |
